Assay results: PubChem BioAssay (NCI)
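Cells were grown in 96-well plates and exposed to each compound for 48 hours at five concentrations; endpoints were interpolated linearly between bracketing concentrations, or set to the highest concentration if not reached. Abbreviation: GI50, concentration required for 50% inhibition of growth. TGI marks complete inhibition of growth.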

Assays:
Experiment in all cases: inhibition of tumour cell growth, NCI panel, 48 h
[1] = test system: 786-0 renal
[2] = test system: SK-OV-3 ovarian
[3] = test system: NCI/ADR-RES ovarian
[4] = test system: OVCAR-8 ovarian
[5] = test system: CAKI-1 renal
[6] = test system: T-47D breast
[7] = test system: NCI-H226 lung
[8] = test system: M14 melanoma
[9] = test system: K-562 leukemia
[10] = test system: RPMI-8226 leukemia
[11] = test system: SF-268 CNS
[12] = test system: NCI-H23 lung
[13] = test system: RXF 393 renal
[14] = test system: SF-295 CNS
[15] = test system: SW-620 colon
[16] = test system: MDA-MB-435
[17] = test system: MDA-MB-231 breast
[18] = test system: HOP-62 NSCLC
[19] = test system: HOP-92 NSCLC
[20] = test system: HT29 colon
[21] = test system: A549 NSCLC
[22] = test system: EKVX NSCLC
[23] = test system: MOLT-4 leukemia
[24] = test system: OVCAR-4 ovarian
[25] = test system: NCI-H460 lung
[26] = test system: MCF7 breast
[27] = test system: COLO 205 colon
[28] = test system: SK-MEL-5 melanoma
[29] = test system: UO-31 renal
[30] = test system: SK-MEL-2 melanoma
[31] = test system: DU-145 prostate
[32] = test system: HS 578T breast
[33] = test system: TK-10 renal
[34] = test system: SF-539 CNS
[35] = test system: IGROV1 ovarian
[36] = test system: OVCAR-3 ovarian
[37] = test system: CCRF-CEM leukemia
[38] = test system: MALME-3M melanoma
[39] = test system: HCC-2998 colon
[40] = test system: HL-60(TB) leukemia
[41] = test system: UACC-257 melanoma
[42] = test system: SNB-19 CNS
[43] = test system: NCI-H522 lung
[44] = test system: LOX IMVI melanoma
[45] = test system: U251 CNS
[46] = test system: KM12 colon
[47] = test system: UACC-62 melanoma
[48] = test system: SK-MEL-28 melanoma
[49] = test system: OVCAR-5 ovarian
[50] = test system: SNB-75 CNS
[51] = test system: PC-3 prostate
[52] = test system: ACHN renal
[53] = test system: HCT-116 colon
[54] = test system: SN12C renal
[55] = test system: SR leukemia
[56] = test system: HCT-15 colon

O=Cc1ccc(N2CCN(c3ccc(C=O)cc3)CC2)cc1
GI50 [1]: > 100 µM | TGI [1]: > 100 µM | GI50 [2]: > 100 µM | TGI [2]: > 100 µM | GI50 [3]: > 100 µM | TGI [3]: > 100 µM | GI50 [4]: > 100 µM | TGI [4]: > 100 µM | GI50 [5]: 10.8 µM | TGI [5]: 76.5 µM | GI50 [6]: 3.35 µM | TGI [6]: 32.6 µM | GI50 [7]: 1.65 µM | TGI [7]: 4.12 µM | GI50 [8]: > 100 µM | TGI [8]: > 100 µM | GI50 [9]: > 100 µM | TGI [9]: > 100 µM | GI50 [10]: > 100 µM | TGI [10]: > 100 µM | GI50 [11]: > 100 µM | TGI [11]: > 100 µM | GI50 [12]: > 100 µM | TGI [12]: > 100 µM | GI50 [13]: 67.2 µM | TGI [13]: > 100 µM | GI50 [14]: > 100 µM | TGI [14]: > 100 µM | GI50 [15]: > 100 µM | TGI [15]: > 100 µM | GI50 [16]: > 100 µM | TGI [16]: > 100 µM | GI50 [17]: > 100 µM | TGI [17]: > 100 µM | GI50 [18]: > 100 µM | TGI [18]: > 100 µM | GI50 [19]: > 100 µM | TGI [19]: > 100 µM | GI50 [20]: > 100 µM | TGI [20]: > 100 µM | GI50 [21]: 40.1 µM | TGI [21]: > 100 µM | GI50 [22]: > 100 µM | TGI [22]: > 100 µM | GI50 [23]: > 100 µM | TGI [23]: > 100 µM | GI50 [24]: 5.68 µM | TGI [24]: > 100 µM | GI50 [25]: 77.2 µM | TGI [25]: > 100 µM | GI50 [26]: 97.7 µM | TGI [26]: > 100 µM | GI50 [27]: > 100 µM | TGI [27]: > 100 µM | GI50 [28]: > 100 µM | TGI [28]: > 100 µM | GI50 [29]: > 100 µM | TGI [29]: > 100 µM | GI50 [30]: > 100 µM | TGI [30]: > 100 µM | GI50 [31]: > 100 µM | TGI [31]: > 100 µM | GI50 [32]: > 100 µM | TGI [32]: > 100 µM | GI50 [33]: 4.13 µM | TGI [33]: 76.8 µM | GI50 [34]: > 100 µM | TGI [34]: > 100 µM | GI50 [35]: 45.8 µM | TGI [35]: > 100 µM | GI50 [36]: > 100 µM | TGI [36]: > 100 µM | GI50 [37]: > 100 µM | TGI [37]: > 100 µM | GI50 [38]: 0.565 µM | TGI [38]: > 100 µM | GI50 [39]: 60.8 µM | TGI [39]: > 100 µM | GI50 [40]: > 100 µM | TGI [40]: > 100 µM | GI50 [41]: > 100 µM | TGI [41]: > 100 µM | GI50 [42]: > 100 µM | TGI [42]: > 100 µM | GI50 [43]: 43.1 µM | TGI [43]: > 100 µM | GI50 [44]: > 100 µM | TGI [44]: > 100 µM | GI50 [45]: > 100 µM | TGI [45]: > 100 µM | GI50 [46]: > 100 µM | TGI [46]: > 100 µM | GI50 [47]: 9.36 µM | TGI [47]: > 100 µM | GI50 [48]: > 100 µM | TGI [48]: > 100 µM | GI50 [49]: 2.6 µM | TGI [49]: 8.09 µM | GI50 [50]: > 100 µM | TGI [50]: > 100 µM | GI50 [51]: > 100 µM | TGI [51]: > 100 µM | GI50 [52]: > 100 µM | TGI [52]: > 100 µM | GI50 [53]: 71.5 µM | TGI [53]: > 100 µM | GI50 [54]: > 100 µM | TGI [54]: > 100 µM | GI50 [55]: > 100 µM | TGI [55]: > 100 µM | GI50 [56]: > 100 µM | TGI [56]: > 100 µM
